Data on 24 molecules can be found in patent US20240309003A1, “HETEROCYCLIC COMPOUNDS AS TRIGGERING RECEPTOR EXPRESSED ON MYELOID CELLS 2 AGONISTS AND METHODS OF USE” (Vigil Neuroscience, Inc., priority 2021, published 2024).

Each structure is given as a SMILES string.

T1 sequence (Q9NZC2 19-230): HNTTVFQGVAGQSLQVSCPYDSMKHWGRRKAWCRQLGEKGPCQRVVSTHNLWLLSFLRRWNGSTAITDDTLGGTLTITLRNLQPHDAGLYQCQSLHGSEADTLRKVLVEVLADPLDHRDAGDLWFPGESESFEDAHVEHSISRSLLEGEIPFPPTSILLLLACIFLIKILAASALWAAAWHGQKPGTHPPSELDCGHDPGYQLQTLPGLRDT
T1 sequence (O43914 22-113 partner): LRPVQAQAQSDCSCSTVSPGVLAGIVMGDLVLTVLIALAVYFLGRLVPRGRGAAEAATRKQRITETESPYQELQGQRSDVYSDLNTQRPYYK

This experiment addresses T1, human TREM2 (Homo sapiens, UniProt Q9NZC2).
T1 construct: expressed in transfected cells; host or cells: HEK293T
Put plainly: TREM2 agonist potency by cellular phosphorylation of Syk (AlphaLisa) in HEK293T-hTREM2 cells. It is filed as cell-based. As to conditions: HEK293 cells expressing human TREM2 and DAP12, Table D. In outline: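 Agonist EC50 from a variable-slope four-parameter fit of % activation, based on AlphaLisa phospho-Syk levels in lysates. Cells: HEK293T-hTREM2 (with DAP12), treated 45 min at room temperature with compound in assay buffer.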
For orientation: Alpha assays give light when donor and acceptor beads are brought close together.
A word on the EC50: it is the concentration needed to bring the measured effect to its halfway point. A low value points to higher potency in that assay. With `Cc1cc([C@@H]2C[C@H](c3cc(-c4ccc(Cl)c(F)c4F)c4cc(C)c(C)nc4n3)CCO2)ccn1` [Example 187, 5-(4-chloro-2,3-difluorophenyl)-2,3-dimethyl-7-((2S,4R)-2-(2-methylpyridin-4-yl)tetrahydro-2H-pyran-4-yl)-1,8-naphthyridine], the EC50 is < 0.05 µM.

Regarding `[2H]C1([2H])C[C@H](c2nc(-c3ccc(Cl)cc3F)c3nc(C)c(C)nc3n2)C[C@H](c2cnn(C3CC3)c2)O1` [Example 188, 4-(4-chloro-2-fluorophenyl)-2-((2R,4S)-2-(1-cyclopropyl-1H-pyrazol-4-yl)tetrahydro-2H-pyran-4-yl-6,6-d2)-6,7-dimethylpteridine], the EC50 is < 0.05 µM.

Take `[2H]C1([2H])C[C@@H](c2nc(-c3ccc(Cl)cc3F)c3nc(C)c(C)nc3n2)C[C@@H](c2cnn(C3CC3)c2)O1` [Example 189, 4-(4-chloro-2-fluorophenyl)-2-((2S,4R)-2-(1-cyclopropyl-1H-pyrazol-4-yl)tetrahydro-2H-pyran-4-yl-6,6-d2)-6,7-dimethylpteridine]: the 50% effective concentration (EC50) lay in the range of 0.05 to 0.5 µM.

For `[2H]C1([2H])C[C@H](c2nc(-c3ccc(F)cc3F)c3nc(C)c(C)nc3n2)C[C@]([2H])(c2cnn(C3CC3)c2)O1` [Example 190, 2-((2R,4S)-2-(1-cyclopropyl-1H-pyrazol-4-yl)tetrahydro-2H-pyran-4-yl-2,6,6-d3)-4-(2,4-difluorophenyl)-6,7-dimethylpteridine], the EC50 was < 0.05 µM.

On to `[2H]C1([2H])C[C@H](c2nc(-c3ccc(Cl)cc3F)c3nc(C)c(C)nc3n2)C[C@]([2H])(c2cnn(C3CC3)c2)O1` [Example 192, 4-(4-chloro-2-fluorophenyl)-2-((2R,4S)-2-(1-cyclopropyl-1H-pyrazol-4-yl)tetrahydro-2H-pyran-4-yl-2,6,6-d3)-6,7-dimethylpteridine], for which the concentration giving a half-maximal response (EC50) was < 0.05 µM.

`[2H]C1([2H])C[C@@H](c2nc(-c3ccc(Cl)cc3F)c3nc(C)c(C)nc3n2)C[C@@]([2H])(c2cnn(C3CC3)c2)O1` [Example 193, 4-(4-chloro-2-fluorophenyl)-2-((2S,4R)-2-(1-cyclopropyl-1H-pyrazol-4-yl)tetrahydro-2H-pyran-4-yl-2,6,6-d3)-6,7-dimethylpteridine] returned an EC50 of 0.05 to 0.5 µM.

For the molecule `Cc1nc2nc(N3CCOC(c4cc[nH]c(=O)c4)C3)nc(-c3ccc(C(F)(F)F)nc3)c2nc1C` (stereo not drawn) [Example 194, 4-(4-(6,7-dimethyl-4-(6-(trifluoromethyl)pyridin-3-yl)pteridin-2-yl)morpholin-2-yl)pyridin-2(1H)-one], the EC50 was < 0.05 µM.

As to `Cc1nc2nc(N3CCO[C@@H](c4cc[nH]c(=O)c4)C3)nc(-c3ccc(C(F)(F)F)nc3)c2nc1C` [Example 195, (S)-4-(4-(6,7-dimethyl-4-(6-(trifluoromethyl)pyridin-3-yl)pteridin-2-yl)morpholin-2-yl)pyridin-2(1H)-one], the EC50 is < 0.05 µM.

`Cc1nc2nc(N3CCO[C@H](c4cc[nH]c(=O)c4)C3)nc(-c3ccc(C(F)(F)F)nc3)c2nc1C` [Example 196, (R)-4-(4-(6,7-dimethyl-4-(6-(trifluoromethyl)pyridin-3-yl)pteridin-2-yl)morpholin-2-yl)pyridin-2(1H)-one] gave an EC50 of 0.05 to 0.5 µM.

On to `Cc1nc2nc(N3CCOC(c4cc[nH]c(=O)c4)C3)nc(C34CC(C(F)(F)F)(C3)C4)c2nc1C` (stereo not drawn) [Example 197, 4-(4-(6,7-dimethyl-4-(3-(trifluoromethyl)bicyclo[1.1.1]pentan-1-yl)pteridin-2-yl)morpholin-2-yl)pyridin-2(1H)-one], for which the concentration for a half-maximal effect (EC50) was < 0.05 µM.

With `Cc1nc2nc(N3CCO[C@@H](c4cc[nH]c(=O)c4)C3)nc(C34CC(C(F)(F)F)(C3)C4)c2nc1C` [Example 198, (S)-4-(4-(6,7-dimethyl-4-(3-(trifluoromethyl)bicyclo[1.1.1]pentan-1-yl)pteridin-2-yl)morpholin-2-yl)pyridin-2(1H)-one], the EC50 is < 0.05 µM.

Molecule `Cc1nc2nc(N3CCO[C@H](c4cc[nH]c(=O)c4)C3)nc(C34CC(C(F)(F)F)(C3)C4)c2nc1C` [Example 199, (R)-4-(4-(6,7-dimethyl-4-(3-(trifluoromethyl)bicyclo[1.1.1]pentan-1-yl)pteridin-2-yl)morpholin-2-yl)pyridin-2(1H)-one] returned an EC50 of 0.05 to 0.5 µM.

Consider `Cc1nc2nc([C@@H]3CCO[C@H](c4ccc(=O)n(C)c4)C3)nc(-c3ccc(F)cc3F)c2nc1C` [Example 200], for which the concentration giving a half-maximal response (EC50) is < 0.05 µM.

In turn, `Cc1nc2nc([C@H]3CCO[C@@H](c4ccc(=O)n(C)c4)C3)nc(-c3ccc(F)cc3F)c2nc1C` [Example 201] registered a half-maximal effective concentration (EC50) of 0.5 to 3 µM.

In turn, `Cc1nc2nc([C@@H]3CCO[C@H](c4cccc(=O)n4C)C3)nc(-c3ccc(F)cc3F)c2nc1C` [Example 202] yielded an EC50 of 0.5 to 3 µM.

On to `Cc1nc2nc([C@H]3CCO[C@@H](c4cccn(C)c4=O)C3)nc(-c3ccc(F)cc3F)c2nc1C` [Example 203], for which the EC50 is 3 to 100 µM.

`Cc1nc2nc([C@@H]3CCO[C@H](c4cccn(C)c4=O)C3)nc(-c3ccc(F)cc3F)c2nc1C` [Example 204] registered an EC50 of 0.5 to 3 µM.

In the case of `Cc1nc2nc(N3CCN(C)C(c4cnn(C5CC5)c4)C3)nc(-c3ccc(Cl)cc3F)c2nc1C` (stereo not drawn) [Example 205, 4-(4-chloro-2-fluorophenyl)-2-(3-(1-cyclopropyl-1H-pyrazol-4-yl)-4-methylpiperazin-1-yl)-6,7-dimethylpteridine], the EC50 is < 0.05 µM.

`Cc1nc2nc(N3CCN(C)[C@@H](c4cnn(C5CC5)c4)C3)nc(-c3ccc(Cl)cc3F)c2nc1C` [Example 206, (S)-4-(4-chloro-2-fluorophenyl)-2-(3-(1-cyclopropyl-1H-pyrazol-4-yl)-4-methylpiperazin-1-yl)-6,7-dimethylpteridine] came in with an EC50 of 0.05 to 0.5 µM.

On to `Cc1nc2nc(N3CCN(C)[C@H](c4cnn(C5CC5)c4)C3)nc(-c3ccc(Cl)cc3F)c2nc1C` [Example 207, (R)-4-(4-chloro-2-fluorophenyl)-2-(3-(1-cyclopropyl-1H-pyrazol-4-yl)-4-methylpiperazin-1-yl)-6,7-dimethylpteridine], for which the concentration for a half-maximal effect (EC50) is < 0.05 µM.

Turning to `Cc1cnc2c(-c3ccc(F)cc3F)nc(N3C[C@@H](c4cnn(C5CC5)c4)O[C@@H](C)C3)cc2n1` [Example 208, (2R,6S)-2-(1-cyclopropyl-1H-pyrazol-4-yl)-4-(5-(2,4-difluorophenyl)-2-methylpyrido[3,4-b]pyrazin-7-yl)-6-methylmorpholine], the EC50 lay within 0.5 to 3 µM.

In the case of `Cc1cnc2c(-c3ccc(F)cc3F)nc(N3C[C@@H](C)O[C@@H](c4cnn(C5CC5)c4)C3)cc2n1` [Example 209, (2S,6R)-2-(1-cyclopropyl-1H-pyrazol-4-yl)-4-(5-(2,4-difluorophenyl)-2-methylpyrido[3,4-b]pyrazin-7-yl)-6-methylmorpholine], the EC50 fell in the range of 0.05 to 0.5 µM.

Consider `Cc1nc2cc([C@H]3CCO[C@@H](c4cnn(C5CC5)c4)C3)nc(-c3ccc(F)cc3F)c2nc1C` [Example 210, 7-((2R,4S)-2-(1-cyclopropyl-1H-pyrazol-4-yl)tetrahydro-2H-pyran-4-yl)-5-(2,4-difluorophenyl)-2,3-dimethylpyrido[3,4-b]pyrazine], for which the EC50 was < 0.05 µM.

Turning to `Cc1nc2cc([C@H]3CCO[C@@H](c4cnn(C5CC5)c4)C3)nc(-c3ccc(C(F)(F)F)cc3F)c2nc1C` [Example 211, 7-((2R,4S)-2-(1-cyclopropyl-1H-pyrazol-4-yl)tetrahydro-2H-pyran-4-yl)-5-(2-fluoro-4-(trifluoromethyl)phenyl)-2,3-dimethylpyrido[3,4-b]pyrazine], the EC50 was < 0.05 µM.
